Experiments:
[1] = Dissolution test, rabeprazole (paddle method, tris buffer pH 8.0); type: physicochemical; settings: tris buffer pH 8.0, 37° C., 50 rpm
Procedure: (§1) Dissolution tests were carried oat, according to the procedures shown in Tables 6 to 8 and described below, on pharmaceutical preparations composed of the drug-containing particles obtained in Examples 11 and 12. The results are shown in Tables 9 and 10 and in FIGS. 14 and 15.
First, 20 mg of rabeprazole sodium is precisely weighed cut and dissolved by adding 30 mL of an aqueous NaOH solution (0.5 M), after which 45 mL of methanol is added, then the volume is brought up to exactly 100mL with a water-methanol solution (2:3). Two mL of this solution is precisely measured out and brought up to exactly 100 mL with a water-methanol solution (2:3), thereby giving a 4 ppm reference solution. In a separate procedure, 2 mL of the same solution is precisely measured out and brought up to a volume of exactly 200 mL with a water-methanol solution (2:3), thereby giving a 2 ppm reference solution. Liquid chromatography is carried on these reference solutions, and the slopes (a) and intercepts (t) of the straight lines obtained by plotting the peak areas and concentrations of rabeprazole are determined.
One milliliter of an aqueous NaOH solution (0.5 M) is added to 5 mL of the sample solution at each sampling time, and the resulting solution is thoroughly mixed. Next, 4 mL of this solution is precisely measured out, then 2 mL of an aqueous NaOH solution (0.5 M) and 8 mL of methanol are added, following which the volume is brought up to exactly 20 mL with a water-methanol solution (2:3). Liquid chromatography is then carried cut under the conditions described above, and the peak area (Qt) for rabeprazole is determined. Both the reference solutions and the sample solution are used as injection solutions after filtration with a membrane filter having a pore sire of 0.2 μm.
Dissolution rate (%)=(Qt−t)/a×5×6/5×900/1,000/amount of rabeprazole Na collected (mg)×100

[2] = Dissolution test, ibuprofen (paddle method, JP second fluid pH 6.8); type: physicochemical; settings: JP second fluid pH 6.8, 37° C., 75 rpm
Procedure: as §1
The liquid sampled in the dissolution test is used directly as the sample solution. Analysis according to “2.01 Liquid Chromatography” is carried out on this sample solution. Testing of the ibuprofen content in the sample solution is carried out under the conditions indicated in (1) above.
In a separate operation, 25 mg of ibuprofen reference is precisely weighed out and dissolved in acetonitrile while bringing the volume up to exactly 50 mL. Next, 5 mL of this solution is precisely measured out and JP second fluid is added so as to bring the volume up to exactly 25 mL, thereby giving a reference solution (about 100 ppm). In a separate operation, 5 mL of this solution is precisely measured out and JP second fluid is added so as to bring the volume up to 50 mL, thereby giving a 50 ppm reference solution. Next, 10 mL of this solution is precisely measured out and JP second fluid is added so as to bring the volume up to exactly 25 mL, thereby giving a […] reference solution. Liquid chromatography is carried out on these reference solutions, and the slopes (a) and intercepts (t) of the straight lines obtained by plotting the peak areas and concentrations of the ibuprofen references are determined. The dissolution rate is determined by entering the content B in the sample solution into the following formula: […]

Row | Structure (SMILES) | Dissolution rate ([1]; dissolution time 5 min) | Dissolution rate ([1]; dissolution time 10 min) | Dissolution rate ([1]; dissolution time 15 min) | Dissolution rate ([1]; dissolution time 20 min) | Dissolution rate ([1]; dissolution time 30 min) | Dissolution rate ([1]; dissolution time 60 min) | Dissolution rate ([2]; dissolution time 5 min) | Dissolution rate ([2]; dissolution time 10 min) | Dissolution rate ([2]; dissolution time 15 min) | Dissolution rate ([2]; dissolution time 20 min) | Dissolution rate ([2]; dissolution time 30 min) | Dissolution rate ([2]; dissolution time 60 min)
1 | COCCCOc1ccnc(C[S+]([O-])c2nc3ccccc3[nH]2)c1C (stereo not drawn) [RBP-Ref., Rabeprazole Na] | 78.6% | 86.0% | 87.1% | 87.5% | 85.5% | 78.4% | – | – | – | – | – | –
2 | CC(C)Cc1ccc(C(C)C(=O)O)cc1 (stereo not drawn) [IBP-Ref., Ibuprofen] | – | – | – | – | – | – | 49.5% | 77.3% | 83.4% | 86.0% | 89.6% | 95.0%

From US20140030346A1, “DISINTEGRABLE CORE PARTICLE FOR PHARMACEUTICAL PREPARATION” (priority 2010, published 2014)
